Laboratory results: ChEMBL document CHEMBL3774318, “Synthesis and antiproliferative activity of goniobutenolides A and B, 5-halogenated crassalactone D derivatives and the corresponding 7-epimers” (Eur J Med Chem, 2016)

How the values were obtained:
[1] = Cytotoxicity against human HL60 cells assessed as cell growth inhibition after 72 hrs by MTT assay; format: functional, cell-based; settings: HL-60, 72 h
[2] = Cytotoxicity against human Jurkat T cells assessed as cell growth inhibition after 72 hrs by MTT assay; format: functional, cell-based

COc1cccc2c1C(=O)c1c(O)c3c(c(O)c1C2=O)C[C@@](O)(C(=O)CO)C[C@@H]3O[C@H]1C[C@H](N)[C@H](O)[C@H](C)O1 [DOXORUBICIN]
IC50 [1]: 920 nM | IC50 [2]: 30 nM
